Source: BindingDB's records for patent US9796702 (Hoffmann-La Roche, 2017)

What was measured:
[1] = biological target: T1, Cytochrome P450 11B2, mitochondrial (Homo sapiens, UniProt P19099); test: Inhibition Assay
T1 sequence (P19099 whole entry): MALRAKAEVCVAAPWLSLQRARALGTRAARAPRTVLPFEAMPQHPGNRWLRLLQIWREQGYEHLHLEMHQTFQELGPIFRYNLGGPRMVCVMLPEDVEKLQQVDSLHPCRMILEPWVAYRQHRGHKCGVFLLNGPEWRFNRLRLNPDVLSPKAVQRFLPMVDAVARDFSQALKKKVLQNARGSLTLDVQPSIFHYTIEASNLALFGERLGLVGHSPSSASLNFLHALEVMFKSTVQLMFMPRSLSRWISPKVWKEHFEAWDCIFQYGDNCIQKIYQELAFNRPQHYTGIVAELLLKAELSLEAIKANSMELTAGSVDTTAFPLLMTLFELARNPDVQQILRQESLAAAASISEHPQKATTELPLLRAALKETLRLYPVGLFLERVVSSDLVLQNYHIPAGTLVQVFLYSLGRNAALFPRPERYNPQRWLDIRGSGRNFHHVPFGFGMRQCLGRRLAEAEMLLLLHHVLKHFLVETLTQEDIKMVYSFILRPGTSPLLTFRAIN
Text: (§1) The expression plasmids contains the ORF for either human/cyno CYP11B1 or CYP11B2 under the control of a suitable promoter (CMV-promoter) and a suitable resistance marker (neomycin). Using standard techniques the expression plasmid is transfected into G-402 cells and these cells are then selected for expressing the given resistance markers. Individual cell-clones are then selected and assessed for displaying the desired enzymatic activity using 11-Deoxycorticosterone (Cyp11B2) or 11-Deoxycortisol (Cyp11B1) as a substrate.G-402 cells expressing CYP11 constructs were established as described above and maintained in McCoy's 5a Medium Modified, ATCC Catalog No. 30-2007 containing 10% FCS and 400 μg/ml G418 (Geneticin) at 37° C. under an atmosphere of 5% CO2/95% air. Cellular enzyme assays were performed in DMEM/F12 medium containing 2.5% charcoal treated FCS and appropriate concentration of substrate (0.3-10 uM 11-Deoxycorticosterone, 11-Deoxycortisol or Corticosterone). For assaying enzymatic activity, cells were plated onto 96 well plates and incubated for 16 h. An aliquot of the supernatant is then transferred and analyzed for the concentration of the expected product (Aldosterone for CYP11B2; Cortisol for CYP11B1). The concentrations of these steroids can be determined using HTRF assays from CisBio analyzing either Aldosterone or Cortisol.

[2] = biological target: T2, Cytochrome P450 11B1, mitochondrial (Homo sapiens, UniProt P15538); test: Inhibition Assay
T2 sequence (P15538 whole entry): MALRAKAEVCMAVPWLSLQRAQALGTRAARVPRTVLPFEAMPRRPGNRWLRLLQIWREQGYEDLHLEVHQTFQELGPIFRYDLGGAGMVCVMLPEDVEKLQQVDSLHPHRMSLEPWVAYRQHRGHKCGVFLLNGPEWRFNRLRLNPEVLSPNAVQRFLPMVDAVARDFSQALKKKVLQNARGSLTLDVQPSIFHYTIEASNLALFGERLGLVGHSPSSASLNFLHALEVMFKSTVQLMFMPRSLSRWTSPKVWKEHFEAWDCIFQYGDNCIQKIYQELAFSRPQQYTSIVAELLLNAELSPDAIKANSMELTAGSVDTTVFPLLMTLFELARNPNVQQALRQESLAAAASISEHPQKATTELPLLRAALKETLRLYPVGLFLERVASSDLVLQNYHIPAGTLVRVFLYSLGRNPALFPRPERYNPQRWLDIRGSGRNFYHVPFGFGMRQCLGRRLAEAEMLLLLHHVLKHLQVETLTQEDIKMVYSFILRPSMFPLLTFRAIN
Text: as §1

| Structure (SMILES) | EC50 [1] | EC50 [2] |
| --- | --- | --- |
| CC(=O)N1CCC(C(C)c2c[nH]nc2-c2ccc3c(c2F)CCC(=O)N3C)CC1 (stereo not given) [US9796702, 36] | 3 pM | – |
| CC(=O)N1CCC([C@H](C)c2c[nH]nc2-c2ccc3c(c2F)CCC(=O)N3C)CC1 (single isomer, unassigned) [US9796702, 37] | – | 4580 pM |
| CN1C(=O)CCc2cc(-c3n[nH]cc3CC3CCN(C(=O)c4cnn(C)c4)CC3)ccc21 [US9796702, 17] | 7 pM | – |
| CC(=O)N1CCC(C(C)c2c[nH]nc2-c2cc3c(cc2F)N(C)C(=O)CC3)CC1 (racemic) [US9796702, 35] | 5 pM | – |
| CCS(=O)(=O)N1CCC(Cc2c[nH]nc2-c2ccc3c(c2F)CCC(=O)N3C)CC1 [US9796702, 22] | 2 pM | – |
